From patent US20210161882A1, “DEPOT ADMINISTRATION OF ILOPERIDONE” (Vanda Pharmaceuticals Inc., priority 2018, published 2021) come the findings set out here.

This data set is described as follows: Crystalline iloperidone particle size determination (Malvern Mastersizer 2000 laser light scattering). Format: physicochemical. The following applies: wet dispersion in saturated 0.1% Tween 80, average of n=2 trials, each the average of 5 acquisitions. Here is the method: Crystalline iloperidone particle sizes are determined in accordance with the following example. The Malvern Mastersizer 2000 (Malvern Instruments, Ltd., Malvern, UK) laser light scattering particle size analyzer and Hydro 2000 (Malvern Instruments, Ltd., Malvern, UK) wet sample dispersion unit are turned on, allowing time for the laser to warm up, e.g., for about 30 minutes. The PC is turned on, Mastersizer 2000 software is opened, and a file is created for storing results. An instrument verification check is performed according to SGS SOP EQP-525-10 Operation Preventative Maintenance and Performance Verification of the Mastersizer 2000. A new file for results storage is created, and the device is configured for Existing SOP for iloperidone. The parameters listed under the SOP are verified to confirm accuracy, namely: sample material name, iloperidone depot for injection; refractive index, 1.53, absorption, 0.1; dispersant medium, saturate 0.1% Tween 80 (Sigma Aldrich Co., St. Louis, Mo.) with 0.1% w/v sample; refractive index, 1.33; result model, general purpose; particle shape, irregular; sensitivity, normal; pump speed, 2000 RPM; sample measurement time, 12 seconds (12,000 snaps); background measurement time, 12 seconds (12,000 snaps); size range, 0.020 to 2000.000 μm; aliquot per SOP, 1; number of measurement cycles, 5 (report average); obscuration limits, 10-20%. Verification is made that the outlet tube of the dispersion unit is into the waste tank, and the tank is not full; the waste container is emptied on an as needed basis. […]
Samples are prepared by saturating 0.1% Tween 80 (Sigma-Aldrich Co., St. Louis, Mo.) polysorbate 80 with 0.1% w/v crystalline iloperidone. […] The SOP is started with the parameters for the sample so that the instrument is ready to perform measurements as soon as the sample is introduced to the Hydro 2000 unit. […] Each sample is measured twice (out of one preparation).
The resulting histogram is then evaluated. […]

Regarding `COc1cc(C(C)=O)ccc1OCCCN1CCC(c2noc3cc(F)ccc23)CC1` [crystalline iloperidone, 1-[4-[3-[4-(6-flouro-1,2-benzisoxazol-3-yl)-1-piperidinyl]propoxy]-3-methoxyphenyl]ethanone], the “average Dv10” value is 14-50 μm, the “average Dv50” value is recorded as 91-118 μm and the “average Dv90” value is 188-241 μm.
